Test results as given in PubChem BioAssay AID1963976 (Molecular Pharmacology Branch, DTP, NCI, 2024).

System: 435261-313-R-J1-PDC tumor spheroid viability
Test: Anticancer human tumor 435261-313-R-J1-PDC patient-derived colon adenocarcinoma cell line growth inhibition [PI3K]
Conditions: spheroids with HUVEC and MSC; for IC50: curve of first compound; for viability, T/C: stronger effect = lower value; active = viability on the fitted dose curve at most 10% of control; inactive = the rest
In short: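 Tumor cells grown as multi-cell spheroids with HUVEC endothelial cells and MSC fibroblast-like stroma were treated with targeted agents combined with inavolisib, alpelisib, duvelisib or copanlisib. Doses fell in half-log steps from near clinical Cmax, else from 10 microM. Viability was measured.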

[1] = second compound 0.00316 µM, first compound 0.0316 µM
[2] = second compound 0.00316 µM, first compound 0.1 µM
[3] = second compound 0.00316 µM, first compound 0.316 µM
[4] = second compound 0.00316 µM, first compound 1 µM
[5] = second compound 0.00316 µM, first compound 3.16 µM
[6] = second compound 0.00316 µM, first compound 10 µM
[7] = second compound 0.01 µM, first compound 0.0316 µM
[8] = second compound 0.01 µM, first compound 0.1 µM
[9] = second compound 0.01 µM, first compound 0.316 µM
[10] = second compound 0.01 µM, first compound 1 µM
[11] = second compound 0.01 µM, first compound 3.16 µM
[12] = second compound 0.01 µM, first compound 10 µM
[13] = second compound 0.0316 µM, first compound 0.0316 µM
[14] = second compound 0.0316 µM, first compound 0.1 µM
[15] = second compound 0.0316 µM, first compound 0.316 µM
[16] = second compound 0.0316 µM, first compound 1 µM
[17] = second compound 0.0316 µM, first compound 3.16 µM
[18] = second compound 0.0316 µM, first compound 10 µM
[19] = second compound 0.1 µM, first compound 0.0316 µM
[20] = second compound 0.1 µM, first compound 0.1 µM
[21] = second compound 0.1 µM, first compound 0.316 µM
[22] = second compound 0.1 µM, first compound 1 µM
[23] = second compound 0.1 µM, first compound 3.16 µM
[24] = second compound 0.1 µM, first compound 10 µM
[25] = second compound 0.316 µM, first compound 0.0316 µM
[26] = second compound 0.316 µM, first compound 0.1 µM
[27] = second compound 0.316 µM, first compound 0.316 µM
[28] = second compound 0.316 µM, first compound 1 µM
[29] = second compound 0.316 µM, first compound 3.16 µM
[30] = second compound 0.316 µM, first compound 10 µM
[31] = second compound 1 µM, first compound 0.0316 µM
[32] = second compound 1 µM, first compound 0.1 µM
[33] = second compound 1 µM, first compound 0.316 µM
[34] = second compound 1 µM, first compound 1 µM
[35] = second compound 1 µM, first compound 3.16 µM
[36] = second compound 1 µM, first compound 10 µM
[37] = second compound 3.16 µM, first compound 0.0316 µM
[38] = second compound 3.16 µM, first compound 0.1 µM
[39] = second compound 3.16 µM, first compound 0.316 µM
[40] = second compound 3.16 µM, first compound 1 µM
[41] = second compound 3.16 µM, first compound 3.16 µM
[42] = second compound 3.16 µM, first compound 10 µM
[43] = second compound 10 µM, first compound 0.0316 µM
[44] = second compound 10 µM, first compound 0.1 µM
[45] = second compound 10 µM, first compound 0.316 µM
[46] = second compound 10 µM, first compound 1 µM
[47] = second compound 10 µM, first compound 3.16 µM
[48] = second compound 10 µM, first compound 10 µM
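Also: spheroids exposed to compounds for 7 days.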

CC1(C)CCC(CN2CCN(c3ccc(C(=O)NS(=O)(=O)c4ccc(NCC5CCOCC5)c([N+](=O)[O-])c4)c(Oc4cnc5[nH]ccc5c4)c3)CC2)=C(c2ccc(Cl)cc2)C1 + COc1c(OCCCN2CCOCC2)ccc2c3n(c(=NC(=O)c4cnc(N)nc4)nc12)CCN3
< 31.6 nM: IC50 (second compound 0.0316 µM) | IC50 (second compound 0.1 µM) | IC50 (second compound 0.316 µM) | IC50 (second compound 1 µM)
3250 nM: IC50 (second compound 0.01 µM)
inactive: viability, T/C [1] 77.8% | viability, T/C [2] 65% | viability, T/C [3] 59.7% | viability, T/C [4] 66.4% | viability, T/C [5] 92.9% | viability, T/C [6] 15.3% | viability, T/C [7] 45.6% | viability, T/C [8] 41.2% | viability, T/C [9] 44% | viability, T/C [10] 81% | viability, T/C [11] 49.6% | viability, T/C [12] 10% | viability, T/C [13] 25.2% | viability, T/C [14] 25.9% | viability, T/C [15] 28.5% | viability, T/C [16] 22.6% | viability, T/C [17] 33.9% | viability, T/C [18] 8.36% | viability, T/C [19] 16.8% | viability, T/C [20] 15.3% | viability, T/C [21] 14.9% | viability, T/C [22] 13.9% | viability, T/C [23] 13.5%
4970 nM: IC50 (second compound 0.00316 µM)
active: viability, T/C [24] 5.88% | viability, T/C [25] 8.12% | viability, T/C [26] 8.36% | viability, T/C [27] 8.35% | viability, T/C [28] 7.93% | viability, T/C [29] 9.73% | viability, T/C [30] 4.39% | viability, T/C [31] 4.19% | viability, T/C [32] 4.08% | viability, T/C [33] 4.61% | viability, T/C [34] 5.2% | viability, T/C [35] 6.19% | viability, T/C [36] 3.8%

C#Cc1c(F)ccc2cc(O)cc(-c3ncc4c(N5CC6CCC(C5)N6)nc(OCC56CCCN5CC(F)C6)nc4c3F)c12 (stereo not drawn) + Cc1nc(NC(=O)N2CCCC2C(N)=O)sc1-c1ccnc(C(C)(C)C(F)(F)F)c1
< 31.6 nM: IC50 (second compound 1 µM) | IC50 (second compound 3.16 µM) | IC50 (second compound 10 µM)
1060 nM: IC50 (second compound 0.316 µM)
active: viability, T/C [40] 8.79% | viability, T/C [41] 6.05% | viability, T/C [42] 1.23% | viability, T/C [43] 9.19% | viability, T/C [44] 6.14% | viability, T/C [45] 3.65% | viability, T/C [46] 3.37% | viability, T/C [47] 2.05% | viability, T/C [48] 0.32%
5470 nM: IC50 (second compound 0.0316 µM)
2130 nM: IC50 (second compound 0.1 µM)
inactive: viability, T/C [13] 73.7% | viability, T/C [14] 78% | viability, T/C [15] 102% | viability, T/C [16] 49% | viability, T/C [17] 70.5% | viability, T/C [18] 35.6% | viability, T/C [19] 61.1% | viability, T/C [20] 77% | viability, T/C [21] 98.3% | viability, T/C [22] 58.2% | viability, T/C [23] 43.8% | viability, T/C [24] 18.4% | viability, T/C [25] 39.2% | viability, T/C [26] 67.5% | viability, T/C [27] 46.2% | viability, T/C [28] 51.7% | viability, T/C [29] 27.1% | viability, T/C [30] 12.6% | viability, T/C [31] 23.7% | viability, T/C [32] 27% | viability, T/C [33] 28.4% | viability, T/C [34] 27.9% | viability, T/C [35] 13.9% | viability, T/C [36] 7.05% | viability, T/C [37] 17.1% | viability, T/C [38] 19.7% | viability, T/C [39] 11.3%

Cn1nccc1Nc1nccc(-c2ccn(C(CO)c3ccc(Cl)c(F)c3)c(=O)c2)n1 (stereo not drawn) + CC(Nc1ccc2c(c1)OCCn1cc(N3C(=O)OCC3C(F)F)nc1-2)C(N)=O
active: viability, T/C [23] 10.1% | viability, T/C [24] 5.9% | viability, T/C [28] 8.05% | viability, T/C [29] 5.78% | viability, T/C [30] 3.34% | viability, T/C [33] 6.71% | viability, T/C [34] 6.3% | viability, T/C [35] 4.27% | viability, T/C [36] 0.75%
218 nM: IC50 (second compound 0.01 µM)
inactive: viability, T/C [1] 90.4% | viability, T/C [2] 73.3% | viability, T/C [3] 51.7% | viability, T/C [4] 40.1% | viability, T/C [5] 22.1% | viability, T/C [6] 12.8% | viability, T/C [7] 72.6% | viability, T/C [8] 71.7% | viability, T/C [9] 39.5% | viability, T/C [10] 25.6% | viability, T/C [11] 27% | viability, T/C [12] 11.7% | viability, T/C [13] 68% | viability, T/C [14] 52.1% | viability, T/C [15] 28.7% | viability, T/C [16] 18.9% | viability, T/C [17] 14.9% | viability, T/C [18] 8.18% | viability, T/C [19] 38.6% | viability, T/C [20] 23.1% | viability, T/C [21] 16.9% | viability, T/C [22] 11.8% | viability, T/C [25] 19.6% | viability, T/C [26] 16.3% | viability, T/C [27] 9.92% | viability, T/C [31] 16.8% | viability, T/C [32] 12.2%
< 31.6 nM: IC50 (second compound 0.1 µM) | IC50 (second compound 0.316 µM) | IC50 (second compound 1 µM)
105 nM: IC50 (second compound 0.0316 µM)
421 nM: IC50 (second compound 0.00316 µM)

CC1(C)CCC(Nc2ncc(C(F)(F)F)c(-c3c[nH]c4c(P(C)(C)=O)c(C#N)ccc34)n2)CN1 (stereo not drawn) + CC(Nc1ncnc2nc[nH]c12)c1cc2cccc(Cl)c2c(=O)n1-c1ccccc1
inactive: viability, T/C [13] 61.1% | viability, T/C [14] 52.4% | viability, T/C [15] 61.4% | viability, T/C [16] 61.4% | viability, T/C [17] 48% | viability, T/C [19] 70.5% | viability, T/C [20] 60.4% | viability, T/C [21] 53.4% | viability, T/C [22] 60.6% | viability, T/C [23] 44.4% | viability, T/C [25] 56.9% | viability, T/C [26] 57.8% | viability, T/C [27] 58.2% | viability, T/C [28] 50.9% | viability, T/C [29] 43.5% | viability, T/C [31] 50.5% | viability, T/C [32] 52.1% | viability, T/C [33] 57.2% | viability, T/C [34] 57% | viability, T/C [35] 44.3% | viability, T/C [37] 37.3% | viability, T/C [38] 42.8% | viability, T/C [39] 44% | viability, T/C [40] 47.8% | viability, T/C [41] 36.9% | viability, T/C [43] 33.6% | viability, T/C [44] 27.4% | viability, T/C [45] 27.7% | viability, T/C [46] 31.1% | viability, T/C [47] 22.3%
1550 nM: IC50 (second compound 1 µM)
1920 nM: IC50 (second compound 0.1 µM)
< 31.6 nM: IC50 (second compound 3.16 µM) | IC50 (second compound 10 µM)
1470 nM: IC50 (second compound 0.316 µM)
active: viability, T/C [18] 1.46% | viability, T/C [24] 2.25% | viability, T/C [30] 0.98% | viability, T/C [36] 1.03% | viability, T/C [42] 0.77% | viability, T/C [48] 1.14%
2550 nM: IC50 (second compound 0.0316 µM)
